# Patent publication US5691365A, “Nicotinic receptor antagonists in the treatment of neuropharmacological disorders” (University of Kentucky Research Foundation, priority 1995, dated 1997)
# Where “and” joins values, the source holds several entries; their conditions need not be identical. Identical values can stand only once. Entries after “also recorded” stand apart in the source; their conditions may differ. Like-named read-outs stand apart in the source and are kept apart here.
# Experiments:
# skin = conditions: cited from earlier work
# [1] = Ames type assays and chronic exposure studies; cited from earlier work
# [2] = animal and human experiments; cited from earlier work
# [3] = test system: S(-)nicotine (10 μM)-evoked [^3 H]DA release from rat striatal slices; assay type: cell-based
# Description: (§1) Biological Methods. Male Spragua-Dawley rats (150-200 g) were obtained from Harlan Laboratories (Indianapolis, Ind.) and were housed two per cage with free access to food and water in the Division of Lab Animal Resources at the College of Pharmacy at the University of Kentucky. Experimental protocols involving the animals were approved by the Institutional Animal Care and Use Committee at the University of Kentucky.
# (§2) [^3 H]DA Release Assay. Rat striatal slices (500 μm thickness, 6-8 mg wet weight) were obtained as previously described (Dwoskin and Zahniser, 1986). Slices were incubated for 30 min in Krebs' buffer ([…]; 118 NaCl, 4.7 KCl, 1.2 MgCl2, 1.0 NaH2 PO4, 1.3 CaCl2, […], 11.1 glucose, 25 NaHCO3, 0.11 L-ascorbic acid nd 0.004 disodium EDTA; pH 7.4 and saturated with 95% O2 /5% CO2) in a metabolic shaker at 34°. Slices were rinsed with 15 ml of fresh buffer and incubated for an additional 30 min in fresh buffer containing 0.1 μM [^3 H]dopamine (6 slices/3 ml). Subsequently, slices were rinsed with 15 ml of fresh buffer and transferred to a glass superfusion chamber. Slices were superfused (1.0 ml/min) for 60 min with Krebs' buffer containing nomifensine (10 μm) and pargyline (10 μm) and maintained at 34° C., pH 7.4 with continual aeration (95% O2 /5% CO2). Two 5-min samples (5 ml) were collected to determine basal outflow of [^3 H]DA. N-Substituted nicotine analogues were added to the superfusion buffer after the collection of the second sample and remained in the buffer until 12 consecutive 5-min samples were collected. […] At the end of the experiment each slice was solubilized and the [^3 H] content of the tissue determined.
# (§3) Radioactivity in the superfusate and tissue samples was determined by liquid scintillation spectroscopy. Fractional release for each superfusate sample was calculated by dividing the total tritium collected in each sample by the total tritium present in the tissue at the time of sample collection. Basal [^3 H]out flow was calculated from the average of the tritium collected in the two 5-min samples just before addition of the N-substituted nicotine analogue. The sums of the increase in collected tritium resulting from either exposure to the test compound or exposure to nicotine in the absence and presence of the test compound equaled total [^3 H]overflow. [^3 H]overflow was calculated by subtracting the [^3 H]outflow during an equivalent period of prestimulation from the values in samples collected during and after drug exposure. Inasmuch as the radiolabelled compounds were not separated and identified, the tritium collected in superfusate is referred to as either [^3 H]outflow or [^3 H]overflow, rather than as [^3 H]DA. [^3 H]Overflow primarily represents [^3 H]DA in the presence of nomifensine and pargyline in the superfusion buffer (Zumstein et al. 1981).
# In these experiments, the striatal slices were superfused for 60 min with various concentrations of the analogues prior to nicotine (10 μM) exposure. Antagonist activity was evaluated by comparing the nicotine-evoked [^3 H]overflow in the absence and presence of the analogues. […] The relative order of potency of the classical and pyridine-N substituted nicotine analogues for inhibition of nicotine-evoked [^3 H]DA release from rat striatal slices is illustrated in FIG. 2 by a comparison of their IC50 values.
# FIG. 2. IC50 values for N-substituted analogues of nicotine, nornicotine, and cotinine to inhibit nicotine-evoked [^3 H]DA release from rat striatal slices. Inhibition produced by the classical nicotinic inhibitors, mecamylamine (MEC) and DHBE was also determined. Slices were superfused with inhibitor for 60 min […] co-superfusion with 10 μM nicotine. Inhibition was determined by comparing [^3 H]DA release in the absence and presence of various concentrations of inhibitor. IC50 values were determined using the Logit-log plot (pseudo-Hill plot). […] IC50 for each animal was determined as the intercept of the linear regression.
# [4] = test system: [^3 H]DA release from rat striatal slices; assay: [3H]DA release assay: compound-evoked (intrinsic agonist) release; assay type: cell-based
# Description: as §1, §2, §3
# physchem = conditions: for pKa: d2o, 1H-NMR
# Description: (§4) pKa Determination. A solution [1 g in 12 mls of deuterium oxide 100% atom D] of the compound under investigation was gradually acidified by drop-wise addition of a solution of DC1 to D2 O (20% wt/wt, 99.5% atom D). The pD values were measured on a Corning pH meter. For each pD value, a sample (0.8 mls) was analyzed by ^1 H-NMR on a Varian Unity 300 MHz spectrometer using sodium 3(trimethylsilyl)-2,2,3,3-d4 -propionate (TSP) as internal reference. Protonation of the pyrrolidine- and pyridine-N atoms was followed by observing the variation in chemical shift of the N-1'-methyl and 2'-proton signals from pO 8.8 to pD 3.0. A titration curve of pD vs chemical shift was constructed to determine the pKa values of pyrrolidino-N atom and/or the pyridine-N atom.
# as §4, with “Computational Chemistry.” for “pKa Determination.”, “3-(trimethylsilyl)-2,2,3,3-d4” for “3(trimethylsilyl)-2,2,3,3-d4”, “N-1'methyl” for “N-1'-methyl”, “pD” for “pO”
# [5] = test system: rat striatal synaptosomes; conditions: cited from earlier work
# [6] = test system: dopamine 2 agonist binding in rat basil ganglia; conditions: in vivo; cited from earlier work
# rabbit caudate nucleus = conditions: cited from earlier work
# [7] = test system: rat hypothalamic and corticotropin-releasing hormone secretion; conditions: cited from earlier work
# nicotine receptor = conditions: cited from earlier work
# [8] = test system: receptors that contain the α7, α8, or α9 subunits; conditions: cited from earlier work
# [9] = pKa of pyrrolidino-N (N'-amino) functionality
compound,measurement,setting,value
CN1CCCC1=O [N-methyl-2-pyrrolidone],skin penetration enhancement,skin,effective penetration enhancer
same,toxicity,[1],have not revealed any significant toxicity
same,irritation or sensitization potential,[2],very little irritation or sensitization potential
"C=CC[n+]1cccc([C@@H]2CCCN2C)c1 [NANI, S-N-allylnicotiniumiodide]",nicotinic antagonist activity / inhibition of nicotine-evoked [3H]DA release (in words),[3],Significant antagonist activity; also recorded: significantly lower potency and efficacy; also recorded: possessing antagonist activity; also recorded: preferred nicotinic receptor antagonist activity
same,relative order of potency for inhibition of nicotine-evoked [3H]DA release (comparison of IC50 values),[3],NBNB=NPNI=NnNBI=NANI>NHENI
same,total [3H]overflow (effect on [3H]DA release),"[4]; Table 3, 1 μM, mean ± S.E.M., rat striatal slices",0.02 ± 0.02
same,total [3H]overflow (effect on [3H]DA release),"[4]; Table 3, 10 μM, mean ± S.E.M., rat striatal slices",0.07 ± 0.04
same,total [3H]overflow (effect on [3H]DA release),"[4]; Table 3, 100 μM, mean ± S.E.M., rat striatal slices",0.08 ± 0.03
same,pKa,physchem; [9],6.4
same,predominant ionization form,physchem; physiological pH,exist predominantly in their unprotonated form at physiological pH
"O=c1cccc2n1C[C@@H]1CNC[C@H]2C1 [S(-)cytisine, reference compound]",effect on [3H]DA release / intrinsic agonist activity (in words),[4],only marginally released dopamine from the striatal slice
same,total [3H]overflow (effect on [3H]DA release),[4],0.67 ± 0.26 and 0.85 ± 0.38 and 1.13 ± 0.46
same,Emax,"[4]; Rattus norvegicus, read-out: evoked [3H]DA release relative to nicotine",~20%
same,effect on [3H]dopamine release from rat striatal synaptosomes,[5],lesser effect of cytisine compared to nicotine in evoking dopamine release from rat striatal synaptosomes
"CN1CCC[C@H]1c1cccnc1 [S(-)nicotine, reference compound]","nicotine (10 μM)-evoked total [3H]overflow, grand mean",[3],2.52 ± 0.12
same,"nicotine (10 μM)-evoked total [3H]overflow, range",[3],1.03-4.65
same,effect of chronic treatment on dopamine 2 agonist binding,[6],decreases dopamine 2 agonist binding in rat basil ganglia
same,effect on [3H]DA release / intrinsic agonist activity (in words),[4],concentration-dependent increase in [^3 H]DA release and was the most potent and efficacious compound; also recorded: concentration-dependent increase in [^3 H]DA release from rat striatal slices
same,total [3H]overflow (effect on [3H]DA release),[4],2.80 ± 0.28 and 3.24 ± 0.37 and 5.56 ± 0.50
same,EC50,"[4]; Rattus norvegicus, read-out: EC50 for nicotine-evoked [3H]DA release",2 µM
same,pKa,physchem; pKa of pyridine-N functionality,3.75
same,pKa,physchem; [9],8.4
same,effect on [3H]dopamine release from rat striatal synaptosomes,[5],stimulates the release of [3H]dopamine from rat striatal synaptosomes
same,effect on basal outflow of GABA,rabbit caudate nucleus,accelerated the basil outflow of gamma-aminobutyric acid (GABA)
same,effect on IR-rCRH secretion (in words),[7],stimulated IR-rCRH secretion in a dose-dependent fashion
CN1[C@@H](CC(=O)c2ccccc2)CCC[C@H]1C[C@H](O)c1ccccc1 [alpha-lobeline],agonist/antagonist character,nicotine receptor,mixed agonist-antagonist
α-bungarotoxin,"selective blockade of nicotinic receptors with α7, α8 or α9 subunits",[8],"selectively blocks receptors that contain the α7, α8, or α9 subunits"
